# Values of other authors as cited in PubChem BioAssay AID1259409 (Chemical Carcinogenesis Research Information System (CCRIS), 2018).
# Tested on: rodent chemically induced tumor inhibition, incidence and multiplicity
# Test: CCRIS tumor inhibitor studies
compound,measurement,setting,value
COc1cc(/C=C/C(=O)O)ccc1O,"tumour outcome (control, treated, inhibition, significance)","Carcinogen: AZOXYMETHANE [25843-45-2], Dose [Inhibitor]: 0, 500 PPM IN DIET FOR 23 WK BEGINNING POST LAST CARCINOGEN DOSE (STUDY DURATION: 35 WK), Route [Inhibitor]: ORAL, Species: RAT, Strain/Sex: F344/MALE, Target Tissue: Type of Lesion: LARGE INTESTINE: TUMOR, Dose [Carcinogen]: 15 MG/KG 3X/WK FOR 12 WK (STUDY DURATION: 35 WK), Promoter: NONE","11%, 32%, -190%, not significant"
same,"tumour outcome (control, treated, inhibition, significance)","Carcinogen: AZOXYMETHANE [25843-45-2], Dose [Inhibitor]: 0, 500 PPM IN DIET FOR 23 WK BEGINNING POST LAST CARCINOGEN DOSE (STUDY DURATION: 35 WK), Route [Inhibitor]: ORAL, Species: RAT, Strain/Sex: F344/MALE, Target Tissue: Type of Lesion: SMALL INTESTINE: TUMOR, Dose [Carcinogen]: 15 MG/KG 3X/WK FOR 12 WK (STUDY DURATION: 35 WK), Promoter: NONE","18%, 27%, -50%, not significant"
same,"tumour outcome (control, treated, inhibition, significance)","Carcinogen: AZOXYMETHANE [25843-45-2], Dose [Inhibitor]: 250 PPM IN DIET FOR 4 WK BEGINNING 1 WK PRIOR TO FIRST CARCINOGEN DOSE (STUDY DURATION: 35 WK), Route [Inhibitor]: ORAL, Species: RAT, Strain/Sex: F344/MALE, Target Tissue: Type of Lesion: LARGE INTESTINE: TUMOR, Dose [Carcinogen]: 15 MG/KG 1X/WK FOR 3 WK (STUDY DURATION: 35 WK), Promoter: NONE","59%, 32%, 46%, not significant"
same,"tumour outcome (control, treated, inhibition, significance)","Carcinogen: AZOXYMETHANE [25843-45-2], Dose [Inhibitor]: 250 PPM IN DIET FOR 4 WK BEGINNING 1 WK PRIOR TO FIRST CARCINOGEN DOSE (STUDY DURATION: 35 WK), Route [Inhibitor]: ORAL, Species: RAT, Strain/Sex: F344/MALE, Target Tissue: Type of Lesion: SMALL INTESTINE: TUMOR, Dose [Carcinogen]: 15 MG/KG 1X/WK FOR 3 WK (STUDY DURATION: 35 WK), Promoter: NONE","23%, 5%, 78%, not significant"
same,"tumour outcome (control, treated, inhibition, significance)","Carcinogen: AZOXYMETHANE [25843-45-2], Dose [Inhibitor]: 250 PPM IN DIET FOR 31 WK BEGINNING 1 WK POST LAST CARCINOGEN DOSE (STUDY DURATION: 35 WK), Route [Inhibitor]: ORAL, Species: RAT, Strain/Sex: F344/MALE, Target Tissue: Type of Lesion: LARGE INTESTINE: TUMOR, Dose [Carcinogen]: 15 MG/KG 1X/WK FOR 3 WK (STUDY DURATION: 35 WK), Promoter: NONE","59%, 41%, 31%, not significant"
same,"tumour outcome (control, treated, inhibition, significance)","Carcinogen: AZOXYMETHANE [25843-45-2], Dose [Inhibitor]: 250 PPM IN DIET FOR 31 WK BEGINNING 1 WK POST LAST CARCINOGEN DOSE (STUDY DURATION: 35 WK), Route [Inhibitor]: ORAL, Species: RAT, Strain/Sex: F344/MALE, Target Tissue: Type of Lesion: SMALL INTESTINE: TUMOR, Dose [Carcinogen]: 15 MG/KG 1X/WK FOR 3 WK (STUDY DURATION: 35 WK), Promoter: NONE","23%, 23%, 0%, not significant"
same,"tumour outcome (control, treated, inhibition, significance)","Carcinogen: AZOXYMETHANE [25843-45-2], Dose [Inhibitor]: 500 PPM IN DIET FOR 4 WK BEGINNING 1 WK PRIOR TO FIRST CARCINOGEN DOSE (STUDY DURATION: 35 WK), Route [Inhibitor]: ORAL, Species: RAT, Strain/Sex: F344/MALE, Target Tissue: Type of Lesion: LARGE INTESTINE: TUMOR, Dose [Carcinogen]: 15 MG/KG 1X/WK FOR 3 WK (STUDY DURATION: 35 WK), Promoter: NONE","59%, 32%, 46%, not significant"
same,"tumour outcome (control, treated, inhibition, significance)","Carcinogen: AZOXYMETHANE [25843-45-2], Dose [Inhibitor]: 500 PPM IN DIET FOR 4 WK BEGINNING 1 WK PRIOR TO FIRST CARCINOGEN DOSE (STUDY DURATION: 35 WK), Route [Inhibitor]: ORAL, Species: RAT, Strain/Sex: F344/MALE, Target Tissue: Type of Lesion: SMALL INTESTINE: TUMOR, Dose [Carcinogen]: 15 MG/KG 1X/WK FOR 3 WK (STUDY DURATION: 35 WK), Promoter: NONE","23%, 5%, 78%, not significant"
same,"tumour outcome (control, treated, inhibition, significance)","Carcinogen: AZOXYMETHANE [25843-45-2], Dose [Inhibitor]: 500 PPM IN DIET FOR 31 WK BEGINNING 1 WK POST LAST CARCINOGEN DOSE (STUDY DURATION: 35 WK), Route [Inhibitor]: ORAL, Species: RAT, Strain/Sex: F344/MALE, Target Tissue: Type of Lesion: LARGE INTESTINE: TUMOR, Dose [Carcinogen]: 15 MG/KG 1X/WK FOR 3 WK (STUDY DURATION: 35 WK), Promoter: NONE","59%, 36%, 39%, not significant"
same,"tumour outcome (control, treated, inhibition, significance)","Carcinogen: AZOXYMETHANE [25843-45-2], Dose [Inhibitor]: 500 PPM IN DIET FOR 31 WK BEGINNING 1 WK POST LAST CARCINOGEN DOSE (STUDY DURATION: 35 WK), Route [Inhibitor]: ORAL, Species: RAT, Strain/Sex: F344/MALE, Target Tissue: Type of Lesion: SMALL INTESTINE: TUMOR, Dose [Carcinogen]: 15 MG/KG 1X/WK FOR 3 WK (STUDY DURATION: 35 WK), Promoter: NONE","23%, 27%, -17%, not significant"
same,"tumour outcome (control, treated, inhibition, significance)","Carcinogen: BENZO[A]PYRENE, 50-32-8, Dose [Inhibitor]: 0.06 MMOL/G OF DIET DAILY STARTING 8 D BEFORE AND CONTINUING THROUGH 3 D AFTER CARCINOGEN TREATMENT FOLLOWED BY OBSERVAT, Route [Inhibitor]: ORAL, Species: MOUSE, Strain/Sex: ICR/FEMALE, Target Tissue: Type of Lesion: FORESTOMACH: NEOPLASM, Dose [Carcinogen]: 1 MG IN 0.2 ML CORN OIL 2/WK FOR 4 WK, Promoter: NONE USED","100%, 90%, 10%, not significant"
same,"tumour outcome (control, treated, inhibition, significance)","Carcinogen: BENZO[A]PYRENE, 50-32-8, Dose [Inhibitor]: 100 MG/KG ADMINISTERED 1 HR BEFORE AND 6, 24, 48 AND 72 HR AFTER BENZO[A]PYRENE TREATMENT (STUDY DURATION: 6 MO), Route [Inhibitor]: INTRAPERITONEAL, Species: MOUSE, Strain/Sex: STRAIN-A/MALE, Target Tissue: Type of Lesion: LUNG: ADENOMA, Dose [Carcinogen]: 100 MG/KG ONCE, Promoter: NONE USED","18/18 (100%), 18/18 (100%), 0%, not significant"
same,"tumour outcome (control, treated, inhibition, significance)","Carcinogen: BENZO[A]PYRENE, 50-32-8, Dose [Inhibitor]: 100 MG/KG ADMINISTERED 1 HR BEFORE AND 6, 24, 48 AND 72 HR AFTER CARCINOGEN TREATMENT FOLLOWED BY 6 MO OBSERVATION PERIO, Route [Inhibitor]: INTRAPERITONEAL, Species: MOUSE, Strain/Sex: STRAIN A/MALE, Target Tissue: Type of Lesion: LUNG: ADENOMA, Dose [Carcinogen]: 100 MG/KG ONCE, Promoter: NONE USED","18/18 (100%), 18/18 (100%), 0%, not significant"
same,"tumour outcome (control, treated, inhibition, significance)","Carcinogen: N-NITROQUINOLINE-1-OXIDE, 56-57-5, Dose [Inhibitor]: 0, 500 PPM IN DIET FOR 7 WK BEGINNING 1 WK PRIOR TO START OF CARCINOGEN TREATMENT (STUDY DURATION: 32 WK), Route [Inhibitor]: ORAL, Species: RAT, Strain/Sex: F344\MALE, Target Tissue: Type of Lesion: TONGUE: CARCINOMA, Dose [Carcinogen]: 20 PPM IN DRINKING WATER FOR 5 WK, Promoter: NONE USED","9/15 (60%), 1/14 (7%), 88%, p=0.0035"
